In article PMC6706930, “A novel oral micellar fenretinide formulation with enhanced bioavailability and antitumour activity against multiple tumours from cancer stem cells” (Journal of Experimental & Clinical Cancer Research : CR, 2019):

How the values were obtained:
[1] = Plasma pharmacokinetics, acute study (single oral administration); format: in vivo, CD1 female mice; conditions: for Cmax / AUC(0-t) / Tmax / HL / Cmax ±SD / AUC 0-last: plasma analyte; for amount of metabolite in plasma in comparison to 4-HPR: study of multiple doses, after Bio-nFeR administration
Experimental: (§1) The experiments were performed in CD1 female mice, 7 weeks of age, (body weight 25 ± 2 g) obtained from Envigo RMS SrL (Udine, Italy). They were maintained under specific-pathogen-free conditions with constant temperature and humidity, according to institutional guidelines regularly checked by a certified veterinarian. Animal experimentation was conducted in conformance with the following laws, regulations, and policies governing the care and use of laboratory animals: Italian Governing Law (D. l. 26/2014; Authorization n.19/2008-A issued March 6, 2008 by the Ministry of Health). Mario Negri Institutional Regulations and Policies providing internal authorizations for persons conducting animal experiments (Quality Management System Certificate –UNI EN ISO 9001:2008 – Reg. N 86121). The experimental protocol was reviewed by the Mario Negri Institute Ethical Committee and approved by the Italian Ministry of Health (Aut. Min. No 489/2016-Pr).
(§2) The pharmacokinetics of oral Bio-nFeR was investigated in comparison to that of the reference formulation NCI-FeR, after single administration of multiple doses and after chronic administrations, daily for 2 weeks or bi-daily for 1 week. Bio-nFeR was reconstituted at 20 mg/mL fenretinide to allow the administration of 200 mg/Kg fenretinide that corresponded to the highest dose. The doses of 100, 50 and 10 mg/Kg were administered by using serial dilution of the 20 mg/mL solution.
(§3) NCI-FeR prepared, as per the NCI instructions, at 11.6% w:w fenretinide:internal capsule components, was diluted with corn oil to obtain the treatment solutions at the concentrations of 20, 15 and 10 mg/mL, corresponding to the administered doses of 200, 150 and 100 mg/Kg respectively.
(§4) The oral pharmacokinetics of Bio-nFeR were investigated in four independent groups of 24 mice, randomized to receive different treatment with the following fenretinide equivalent doses: 10, 50, 100 and 200 mg/Kg. The drug was administered by oral gavage and after treatment, blood samples were taken at 15 and 30 min and at 1, 2, 4, 8/10, 24 and 48 h and collected in heparinized tubes from the retro-orbital plexus of the mice under isoflurane anesthesia. Mice were then sacrificed by cervical dislocation and liver, kidney and brain were removed and immediately frozen in dry-ice for future determination. To obtain plasma, blood was centrifuged at 4000 rpm for 10 min at 4 °C. To evaluate fenretinide and metabolites excretion, urine and faeces were collected over a 0–24 h and 24–48 h periods. The collection was performed in three mice per group of treatment, individually housed into metabolic cages for urine and faeces collection. All the biological samples were stored at − 20 °C until analysis. To compare the absorption of Bio-nFeR to NCI-FeR and to study the bioavailability, another independent groups of 24 mice were randomized to receive an oral dose of 200 mg/Kg of NCI-FeR. Blood samples were taken at the time reported above. Twenty-four hours fractions of urine and faeces were collected in three mice per group of treatment. Plasma and the other biological specimens were stored at − 20 °C until analysis. Chronic study: the oral pharmacokinetic of Bio-nFeR in comparison with NCI-FeR were also investigated after chronic administrations. Mice were divided in three independent groups, randomized to receive a single treatment of 150 mg/Kg or different repeated treatments of 150 mg/Kg, daily for 2 weeks (12 days on and 2 days off), or 100 mg/Kg bi-daily for 1 week (5 days on 2 days off). Bio-nFeR and NCI-FeR were administered by oral gavage, collecting blood samples at 0.5, 1, 2, 4, 8/10 and 24 h, the day of the single treatment and at 0, 1, 2, 4, 8/10, 24 and 48 h after the last dose of both the chronic treatments. The procedures of blood collection, plasma preparation, sacrifice of mice and storing of samples were as reported in acute study. […]

[2] = Plasma pharmacokinetics, chronic study (150 mg/Kg single vs daily for 2 weeks); format: in vivo, CD1 female mice; conditions: for AUC(0-t): plasma, po, 150 mg/kg; for relative percent amount of metabolite versus 4-HPR in plasma: after single and repeated treatment
Experimental: as §1, §2, §3, §4

[3] = stated as known, no reference given; cited from earlier work
[4] = female, CD1, mouse, plasma, po, 200 mg/kg, single oral Bio-nFeR, 4-HPR dose 200mg/Kg, Suppl. Table 2 B
[5] = female, CD1, mouse, plasma, po, 200 mg/kg, single oral NCI-nFeR, 4-HPR dose 200mg/Kg, Suppl. Table 2 B
[6] = single oral Bio-nFeR 10 mg/kg, Suppl. Table 2 A
[7] = single oral Bio-nFeR 50 mg/kg, Suppl. Table 2 A
[8] = single oral Bio-nFeR 100 mg/kg, Suppl. Table 2 A
[9] = single oral Bio-nFeR 200 mg/kg, Suppl. Table 2 A
[10] = single oral Bio-nFeR, 4-HPR dose 200mg/Kg, Suppl. Table 2 B
[11] = single oral NCI-nFeR, 4-HPR dose 200mg/Kg, Suppl. Table 2 B
[12] = female, CD1, mouse, plasma analyte, oral Bio-nFeR 150 mg/kg daily, 2 week
[13] = female, CD1, mouse, plasma analyte, oral Bio-nFeR 150 mg/kg, Day 1
[14] = plasma analyte, oral Bio-nFeR 150 mg/kg daily, 2 week
[15] = plasma analyte, oral Bio-nFeR 150 mg/kg, Day 1
[16] = mice, single oral Bio-nFeR 10 mg/kg, Suppl. Table 2 A
[17] = mice, single oral Bio-nFeR 50 mg/kg, Suppl. Table 2 A
[18] = mice, single oral Bio-nFeR 100 mg/kg, Suppl. Table 2 A
[19] = mice, single oral Bio-nFeR 200 mg/kg, Suppl. Table 2 A

## CC1=C(/C=C/C(C)=C/C=C/C(C)=C/C(=O)Nc2ccc(O)cc2)C(C)(C)CCC1 [4-HPR, 4-hydroxy (phenyl)retinamide, reference compound]
[1]; female, CD1, mouse, plasma, po, 10 mg/kg, mice, single oral Bio-nFeR 10 mg/kg, Suppl. Table 2 A
  Cmax: 601 ng/mL
[1]; female, CD1, mouse, plasma, po, 10 mg/kg, single oral Bio-nFeR 10 mg/kg, Suppl. Table 2 A
  AUC(0-t): 6750 ng·h/mL
[1]; female, CD1, mouse, plasma, po, 10 mg/kg, single oral Bio-nFeR 10 mg/kg, Suppl. Table 2 A, read-out: Tmax
  Tmax: 2 h
[1]; female, CD1, mouse, plasma, po, 50 mg/kg, mice, single oral Bio-nFeR 50 mg/kg, Suppl. Table 2 A
  Cmax: 3650 ng/mL
[1]; female, CD1, mouse, plasma, po, 50 mg/kg, single oral Bio-nFeR 50 mg/kg, Suppl. Table 2 A
  AUC(0-t): 39200 ng·h/mL
[1]; female, CD1, mouse, plasma, po, 50 mg/kg, single oral Bio-nFeR 50 mg/kg, Suppl. Table 2 A, read-out: Tmax
  Tmax: 4 h
[1]; female, CD1, mouse, plasma, po, 100 mg/kg, mice, single oral Bio-nFeR 100 mg/kg, Suppl. Table 2 A
  Cmax: 5340 ng/mL
[1]; female, CD1, mouse, plasma, po, 100 mg/kg, single oral Bio-nFeR 100 mg/kg, Suppl. Table 2 A
  AUC(0-t): 66300 ng·h/mL
[1]; female, CD1, mouse, plasma, po, 100 mg/kg, single oral Bio-nFeR 100 mg/kg, Suppl. Table 2 A, read-out: Tmax
  Tmax: 4 h
[1]; female, CD1, mouse, plasma, po, 200 mg/kg, mice, single oral Bio-nFeR 200 mg/kg, Suppl. Table 2 A
  Cmax: 6840 ng/mL
[1]; female, CD1, mouse, plasma, po, 200 mg/kg, single oral Bio-nFeR 200 mg/kg, Suppl. Table 2 A
  AUC(0-t): 113000 ng·h/mL
[1]; female, CD1, mouse, plasma, po, 200 mg/kg, single oral Bio-nFeR 200 mg/kg, Suppl. Table 2 A, read-out: Tmax
  Tmax: 2 h
[1]; [4]
  AUC(0-t): 113000 ng·h/mL
  Cmax: 6840 ng/mL
[1]; female, CD1, mouse, plasma, po, 200 mg/kg, single oral Bio-nFeR, 4-HPR dose 200mg/Kg, Suppl. Table 2 B, read-out: Tmax
  Tmax: 2 h
[1]; [5]
  AUC(0-t): 97900 ng·h/mL
  Cmax: 8460 ng/mL
[1]; female, CD1, mouse, plasma, po, 200 mg/kg, single oral NCI-nFeR, 4-HPR dose 200mg/Kg, Suppl. Table 2 B, read-out: Tmax
  Tmax: 4 h
[1]; female, CD1, mouse, plasma, mice, oral Bio-nFeR, different doses, read-out: elimination half-life (converted)
  half-life: ~7 h
[1]; [6]
  HL: 7.5 h
[1]; [7]
  HL: 7.3 h
[1]; [8]
  HL: 6.5 h
[1]; [9]
  HL: 7.2 h
[1]; [10]
  HL: 7.2 h
[1]; [11]
  HL: 6.7 h
[2]; [12]
  AUC(0-t): 85100 ng·h/mL
  Cmax at 2 weeks: 6810 ng/mL
  Tmax at 2 weeks: 4 h
[2]; [13]
  AUC(0-t): 56900 ng·h/mL
  Cmax: 6350 ng/mL
[2]; female, CD1, mouse, plasma analyte, oral Bio-nFeR 150 mg/kg, Day 1, read-out: Tmax
  Tmax: 20 h
[2]; [14]
  HL: 5.7 h
[2]; [15]
  HL: 5.3 h

## CC1=C(/C=C/C(C)=C/C=C/C(C)=C/C(=O)Nc2ccc(O)cc2)C(C)(C)CCC1=O [4-oxo-4-HPR]
[1]; [16]
  Cmax ±SD: 505.1 ng/mL
[1]; [17]
  Cmax ±SD: 2389.1 ng/mL
[1]; [18]
  Cmax ±SD: 3109.1 ng/mL
[1]; [19]
  Cmax ±SD: 4071.2 ng/mL
[1]; [6]
  AUC 0-last: 4145.3 ng·h/mL
  HL: 5.2 h
  Tmax: 2 h
[1]; [7]
  AUC 0-last: 24372.6 ng·h/mL
  HL: 5.4 h
  Tmax: 4 h
[1]; [8]
  AUC 0-last: 38500.3 ng·h/mL
  HL: 4.8 h
  Tmax: 4 h
[1]; [9]
  AUC 0-last: 58677.2 ng·h/mL
  HL: 5.3 h
  Tmax: 4 h
[1]; [10]
  AUC 0-last: 58677.2 ng·h/mL
  Cmax ±SD: 4071.2 ng/mL
  HL: 5.3 h
  Tmax: 4 h
[1]; [11]
  AUC 0-last: 39875.4 ng·h/mL
  Cmax ±SD: 3372.3 ng/mL
  HL: 5.4 h
  Tmax: 4 h
[1]
  amount of metabolite in plasma in comparison to 4-HPR: about 50%
[2]
  relative percent amount of metabolite versus 4-HPR in plasma: about 50%
[2]; [14]
  AUC 0-last: 54434.2 ng·h/mL
  Cmax ±SD: 4282.6 ng/mL
  HL: 4.7 h
  Tmax: 4 h
[2]; [15]
  AUC 0-last: 33726.1 ng·h/mL
  Cmax ±SD: 2979.4 ng/mL
  HL: 3.9 h

## COc1ccc(NC(=O)\C=C(C)/C=C/C=C(C)\C=C\C2=C(C)CCCC2(C)C)cc1 [MPR]
[1]; [16]
  Cmax ±SD: 120.6 ng/mL
[1]; [17]
  Cmax ±SD: 778.9 ng/mL
[1]; [18]
  Cmax ±SD: 1112.6 ng/mL
[1]; [19]
  Cmax ±SD: 1070.5 ng/mL
[1]; [6]
  AUC 0-last: 1750.7 ng·h/mL
  HL: 9.4 h
  Tmax: 4 h
[1]; [7]
  AUC 0-last: 9931.5 ng·h/mL
  HL: 10.3 h
  Tmax: 4 h
[1]; [8]
  AUC 0-last: 15439.7 ng·h/mL
  HL: 8.6 h
  Tmax: 4 h
[1]; [9]
  AUC 0-last: 21449.6 ng·h/mL
  HL: 11.6 h
  Tmax: 4 h
[1]; [10]
  AUC 0-last: 21449.6 ng·h/mL
  Cmax ±SD: 1070.5 ng/mL
  HL: 11.6 h
  Tmax: 4 h
[1]; [11]
  AUC 0-last: 23406.1 ng·h/mL
  Cmax ±SD: 1407.0 ng/mL
  HL: 9.9 h
  Tmax: 4 h
[1]
  amount of metabolite in plasma in comparison to 4-HPR: ~15%
[2]
  relative percent amount of metabolite versus 4-HPR in plasma: ~15%
[2]; [14]
  AUC 0-last: 22086.1 ng·h/mL
  Cmax ±SD: 1147.9 ng/mL
  HL: 11.2 h
  Tmax: 4 h
[2]; [15]
  AUC 0-last: 10435.4 ng·h/mL
  Cmax ±SD: 798.0 ng/mL
  HL: 8.6 h
  Tmax: 4 h
[3]
  activity of the metabolite: inactive
